# Measured values: patent US7476754B2, “Biphenyl derived thiamides as calpain inhibitors” (Consejo Superior de Investigaciones Cientificas, priority 2004, dated 2009)
# Target: T1, calpain I (Sus scrofa, UniProt P35750)
# T1 construct: The calpain I from porcine erythrocytes; purchased CALBIOCHEM; host or cells: porcine erythrocytes (tissue-purified)
# T1 sequence (P35750 1-714): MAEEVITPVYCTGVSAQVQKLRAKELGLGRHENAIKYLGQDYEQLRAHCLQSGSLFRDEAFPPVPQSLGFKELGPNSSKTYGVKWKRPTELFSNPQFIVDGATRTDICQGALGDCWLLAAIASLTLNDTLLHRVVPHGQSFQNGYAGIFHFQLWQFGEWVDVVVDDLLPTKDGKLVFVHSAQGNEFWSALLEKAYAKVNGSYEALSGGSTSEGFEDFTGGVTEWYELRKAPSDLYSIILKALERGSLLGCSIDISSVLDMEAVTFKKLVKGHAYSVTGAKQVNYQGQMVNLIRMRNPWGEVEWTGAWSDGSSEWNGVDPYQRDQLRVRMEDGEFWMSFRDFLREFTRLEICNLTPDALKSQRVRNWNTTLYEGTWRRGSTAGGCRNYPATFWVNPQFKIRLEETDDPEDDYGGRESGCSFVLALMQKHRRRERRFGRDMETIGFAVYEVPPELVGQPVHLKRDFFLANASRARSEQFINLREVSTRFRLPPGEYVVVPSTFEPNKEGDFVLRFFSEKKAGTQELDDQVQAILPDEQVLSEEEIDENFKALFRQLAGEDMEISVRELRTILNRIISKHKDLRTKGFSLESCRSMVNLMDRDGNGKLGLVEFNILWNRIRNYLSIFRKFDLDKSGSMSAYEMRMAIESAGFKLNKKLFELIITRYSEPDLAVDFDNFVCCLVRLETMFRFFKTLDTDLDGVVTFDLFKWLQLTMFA
# T1 sequence (P04574 1-266 partner): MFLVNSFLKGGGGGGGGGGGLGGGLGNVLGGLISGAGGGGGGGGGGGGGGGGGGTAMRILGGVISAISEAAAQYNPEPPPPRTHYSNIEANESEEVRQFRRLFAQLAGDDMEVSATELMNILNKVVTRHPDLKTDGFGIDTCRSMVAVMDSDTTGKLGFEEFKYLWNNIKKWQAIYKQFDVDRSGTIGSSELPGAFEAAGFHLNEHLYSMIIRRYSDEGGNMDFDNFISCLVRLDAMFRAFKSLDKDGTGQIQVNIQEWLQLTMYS
# Assay: Enzyme activity test: inhibition of calpain (EnzCheck protease assay kit, BODIPY FL casein, fluorescence)
# Format: biochemical
# Details: calpain I from porcine erythrocytes; BODIPY FL casein substrate; Tris-HCl pH 7.8; triplicate
# Description: The calpain inhibition capacity has been quantified in terms of the value of IC50, which is defined as the concentration of inhibitor that reduces the catalytic activity of an enzyme by half. The lower the value of IC50, the more powerful the inhibitor. Inhibition results on calpain I (the most relevant from a physiological point of view) of some compounds of the present invention are shown in table 1 and in FIG. 1. Given that calpain II, also known as milli-calpain, needs a greater amount of calcium for activation, it might not possibly have such a relevant physiological role since such a concentration of calcium would cause cell death before the milli-calpain could become activated. For this reason, the inhibition tests have been performed for calpain I, though they can be extrapolated for calpain II.
# The calpain inhibition capacity has been quantified in terms of the value of IC50, which is defined as the concentration of inhibitor that reduces the catalytic activity of an enzyme by half. The lower the value of IC50, the more powerful the inhibitor. Inhibition results on calpain I (the most relevant from a physiological point of view) of some compounds of the present invention are shown in table 1 and in FIG. 1.
# In order to carry out the inhibition test on calpains, we used the EnzCheck® Protease Assay Kit E-338 from Molecular Probes. This kit contains casein marked with BODIPY FL®, freeze-dried from phosphate buffer. Also used as a digestion buffer was Tris-HCl at pH 7.8, containing 2 mM of sodium azide. The calpain I from porcine erythrocytes or calpain II from porcine kidney that were used are commercial products from CALBIOCHEM®. The enzyme stock solution contained 20 mM of imidazol-HCl buffer, pH 6.8, 1 mM EDTA, 1 mM EGTA, 5 mM β-mercaptoethanol, 30% in glycerol.
# The synthetic inhibitors were dissolved in 250 μL of DMSO. The tests were conducted on 96-well microplates in a final volume of 200 μL. In order to carry out the test, aliquots of stock solution of calpain were added to 150 μL of a 10 μg/μL solution in digestion buffer in order to obtain a final concentration of 50 ng/mL of enzyme. Minimum quantities were added, between 5 and 20 μL of inhibitor solution in DMSO, previously diluted in order to achieve the desired final concentration of inhibitor, and digestion buffer was added until a volume of 190 μL was achieved. The test commenced by adding 10 μL of 0.05 M CaCl2 solution. For each inhibitor, separate measurements excluding inhibitor, calpain and calcium solution were taken as blanks. All measurements were made in triplicate.
# The fluorescence measurements were made in a SPECTRAFLUOR TECAN Corp 93382 spectrum fluorimeter, exciting at 485 nm and taking the reading at 530 nm. The measurement was made over 20 cycles until the measurement of all wells was completed. Stirring was orbital type and took place each cycle.
row,Structure (SMILES),IC50 [nM]
1,"COC(=O)[C@@H](NC(=S)c1ccccc1-c1ccccc1C(=S)N[C@H](C(=O)OC)C(C)C)C(C)C [Compound 5, Methyl (S,S)-2-{[2′-(1-methoxycarbonyl-2-methyl-propylthiocarbamoyl)-biphenyl-2-carbothioyl]-amino}-3-methyl-butyrate]",71
2,"COC(=O)[C@H](Cc1c[nH]c2ccccc12)NC(=O)c1ccccc1-c1ccccc1C(=S)N[C@@H](Cc1c[nH]c2ccccc12)C(=O)OC [Compound 4, Methyl (S,S)-3-(1H-Indol-3-yl)-2-{[2′-(2-(1H-Indol-3-yl)-1-methoxycarbonyl-ethylthiocarbamoyl)-biphenyl-2-carbonyl]-amino}-propionate]",69
3,COC(=O)[C@H](Cc1ccc(O)cc1)NC(=S)c1ccccc1-c1ccccc1C(=S)N[C@@H](Cc1ccc(O)cc1)C(=O)OC [Compound 7],796
4,COC(=O)[C@H](Cc1ccc(O)cc1)NC(=O)c1ccccc1-c1ccccc1C(=S)N[C@@H](Cc1ccc(O)cc1)C(=O)OC [Compound 8],12000
5,"COC(=O)[C@H](Cc1ccccc1)NC(=S)c1ccccc1-c1ccccc1C(=S)N[C@@H](Cc1ccccc1)C(=O)OC [Compound 1, Methyl (S,S)-3-phenyl-2-{[2′-(2-phenyl-1-methoxycarbonyl-ethylthio-carbamoyl)-biphenyl-2-carbothiol]-amino}—propionate]",94000
6,"COC(=O)[C@H](Cc1c[nH]c2ccccc12)NC(=S)c1ccccc1-c1ccccc1C(=S)N[C@@H](Cc1c[nH]c2ccccc12)C(=O)OC [Compound 3, Methyl (S,S)-3-(1H-Indol-3-yl)-2-{[2′-(2-(1H-Indol-3-yl)-1-methoxycarbonyl-ethylthiocarbamoyl)-biphenyl-2-carbothioyl]-amino}-propionate]",0.038
7,"COC(=O)[C@H](Cc1ccccc1)NC(=O)c1ccccc1-c1ccccc1C(=S)N[C@@H](Cc1ccccc1)C(=O)OC [Compound 2, Methyl (S,S)-3-phenyl-2-{[2′-(2-phenyl-1-methoxycarbonyl-ethylthio-carbamoyl)-biphenyl-2-carbonyl]-amino}-propionate]",63000
8,"COC(=O)[C@@H](NC(=O)c1ccccc1-c1ccccc1C(=S)N[C@H](C(=O)OC)C(C)C)C(C)C [Compound 6, Methyl (S,S)-2-{[2′-(1-methoxycarbonyl-2-methyl-propylthiocarbamoyl)-biphenyl-2-carbonyl]-amino}-3-methyl-butyrate]",0.052
